# Patent US20240034761A1, “REGENERATION OF MAMMALIAN TISSUES USING SYNTHETIC IMMODULINS” (priority 2022, published 2024)
# Marks after values point to notes of the source that are not given here. Peptide text beside a SMILES is read from it.
# How the values were obtained:
# [1] = Plate binding of FITC-labelled hyaluronic acid to immobilised biotinylated peptides; conditions: 400 ng peptide/well, 1 ug FITC-HMW-HA, PBS; normalized to immX3 peptide binding = 100
# Experimental: (§1) Effects of pH, PIP2 and size classes: Streptavidin-coated 96-well plates (G-Biosciences, St. Louis, MO) were pre-loaded with biotinylated peptides [see Example 1] at 400 ng/well, at room temperature for 60 minutes. The plate was washed with PBS buffer and then 1 ug FITC-labelled heparin or hyaluronic acid (FITC-HMW-HA) in 100 uL PBS buffer was added per well (all tests done in quadruplicate). Incubation proceeded for 90 minutes at room temperature, followed by two PBS washes. The plate was read in a standard laboratory fluorometer (488/525 nm exitation/[…]) and the counts normalized for immX3 peptide binding=100. Values statistically above background are shown in bold font. **p<0.05 versus immX3AVD.
# [2] = Plate binding of FITC-labelled heparin to immobilised biotinylated peptides; conditions: 400 ng peptide/well, 1 ug FITC-heparin, PBS; normalized to immX3 peptide binding = 100
# Experimental: as §1
# recombinant CD44 protein = biological target: T1, recombinant CD44 protein (Homo sapiens, UniProt P16070); assay: Third binding experiment: CD44 binding to peptide/holotransferrin/hyaluronan complexes; conditions: for CD44 immunoreactivity, 1.5 ug/w HMW-HA: immX3AVD + 1.5 ug HMW-HA set to 100 AU; for CD44 immunoreactivity, CONTROL: no hyaluronan, 100 ng/well CD44
# T1 construct: purchased Abcam, Waltham, MA
# Experimental: as §1
# A third binding experiment was done as described above using immX3AVD peptide with or without 10 ug/well holotransferrin (holoTf) plus either 10 ug/well LMW-HA or either 1.5 ug or 10 ug HMW-HA/well in the binding step, followed by a buffer wash step. 100 ng/well pure recombinant CD44 protein (Abcam, Waltham, MA) was then added to the indicated wells, incubated for 60 minutes at room temperature and the plate was washed with buffer. Anti-CD44 monoclonal antibody (Abcam, Waltham, MA) was added towells at 1:200, incubated for 60 minutes at room temperature and the plate was then washed and developed by secondary antibody and TMB detection as recommended by the manufacturer. CD44 immunoreactivity was expressed in arbitrary immunoreactivity units (AU), with **p<0.05 versus immx3AVD+1.5 ug HMW-HA control, which was set to=100 AU.
# [3] = tested on: C2C12 myoblastic cell line; assay: C2C12 myoblast differentiation, creatine kinase; format: cell-based; conditions: 0.66 uM peptide, 96 hours, relative to immX3AVD = 100
# Experimental: Differentiation assays employed the C2C12 myoblastic cell line (ATCC, Manassas, VA) seeded at 2×10e5 cells per well in 96-well plates and cultured at 37 degrees C. in DMEM growth medium plus 10% fetal bovine serum and 1% penicillin/streptomycin. For differentiation, 10% fetal bovine serum was replaced with 2% horse serum. 0.66 uM peptide was then added, and incubation continued for an additional 96 hours. Plates with adherent cells were washed with PBS, lysed with Lytic-M buffer (Sigma Chemical Company, St. Louis, MO) and the lysates were assayed for creatine kinase using a kit purchased from Bioassay Systems (Cat. #ECPK-100, Hayward, CA). Effects were visually confirmed with microscopy tracking myotube formation. Results were expressed as units per milliliter relative to the control immX3AVD peptide, and p values were also calculated and shown relative to control immX3AVD peptide (** p<0.05 versus immX3AVD control; avg±SD).
# [4] = tested on: THP1-Dual monocyte reporter cell line; assay: THP1-Dual myeloid cell differentiation assay (PMA protocol); format: cell-based, human; conditions: PMA 24 h, then peptide 0.33 uM or 0.66 uM 24 h
# In short: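 THP1-Dual monocytes were primed for 24 h with 100 ng/ml PMA, then given peptide (0.33 uM or 0.66 uM) for a further 24 h at 37 degrees C. CCL22 was measured in the supernatants. Adherent cells were stained for surface markers such as CD169, Clec9a or Clec12a with labeled anti-human antibodies.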
# [5] = tested on: Osteoblast cell line MC3T3E1; assay: MC3T3E1 osteoblast differentiation, alkaline phosphatase; format: cell-based; conditions: peptide 0.66 uM, 5 days, immX3AVD = 100
# Experimental: Yet another non-myeloid lineage was tested. Osteoblast cell line MC3T3E1 was purchased from ATCC (Manassas, VA) and grown in 96-well plates in alpha-MEM medium supplemented with 50 ug/ml ascorbic acid and 5 mM beta-glycerophosphate. Peptides were added and incubation proceeded for 5 days. Cells were washed with PBS buffer and extracts prepared using 100 uL 1X RIPA buffer (Cayman Chemical Company; Ann Arbor, MI) per well. Alkaline phosphatase was measured using 0.37 mg/ml 4-nitrophenyl phosphate in DEA buffer (both reagents purchased from Cayman Chemical Company) by measuring the slope of absorbance at 405 nm using a spectrophotometer. 10 uL of RIPA extract was used for each assay. Separately, protein concentration of extract was measured using a commercial kit. Values were corrected for protein concentration. Results are shown below (**p<0.05 vs immX3AVD=100): […]
# T1 sequence (P16070 21-742, species assumed): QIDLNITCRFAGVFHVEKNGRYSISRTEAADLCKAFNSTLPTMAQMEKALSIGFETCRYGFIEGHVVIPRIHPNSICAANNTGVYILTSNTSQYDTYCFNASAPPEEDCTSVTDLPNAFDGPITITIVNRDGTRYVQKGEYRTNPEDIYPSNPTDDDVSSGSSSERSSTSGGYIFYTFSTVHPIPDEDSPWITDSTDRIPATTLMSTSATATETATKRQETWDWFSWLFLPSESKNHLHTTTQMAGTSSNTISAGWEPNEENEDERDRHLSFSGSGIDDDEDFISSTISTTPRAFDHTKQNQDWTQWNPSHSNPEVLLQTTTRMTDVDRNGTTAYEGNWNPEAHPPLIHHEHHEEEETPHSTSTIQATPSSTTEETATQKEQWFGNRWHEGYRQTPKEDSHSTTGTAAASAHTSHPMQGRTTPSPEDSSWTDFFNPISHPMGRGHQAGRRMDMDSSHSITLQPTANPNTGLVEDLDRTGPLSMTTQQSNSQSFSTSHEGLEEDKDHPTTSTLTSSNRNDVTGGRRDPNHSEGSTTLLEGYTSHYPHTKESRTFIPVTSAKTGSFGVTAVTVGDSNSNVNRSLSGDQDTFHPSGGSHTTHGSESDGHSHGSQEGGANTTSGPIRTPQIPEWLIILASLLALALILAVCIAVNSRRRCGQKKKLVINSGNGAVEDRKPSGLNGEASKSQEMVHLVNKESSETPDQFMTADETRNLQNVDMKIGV
smiles,measurement,setting,value
CC(C)[C@H](NC(=O)[C@H](C)NC(=O)[C@H](Cc1c[nH]c2ccccc12)NC(=O)[C@H](CS)NC(=O)[C@H](Cc1ccccc1)NC(=O)CNC(=O)[C@H](CCCNC(=N)N)NC(=O)[C@H](CCCCN)NC(=O)[C@H](CCCNC(=N)N)NC(=O)CNC(=O)[C@H](CCCCN)NC(=O)[C@H](CO)NC(=O)[C@@H]1CCCN1C(=O)[C@H](CCCNC(=N)N)NC(=O)[C@H](CS)NC(=O)[C@H](CCC(N)=O)NC(=O)[C@H](CCCCN)NC(=O)[C@H](CCCCN)NC(=O)[C@H](CCCCN)NC(=O)[C@H](Cc1ccc(O)cc1)NC(=O)[C@H](Cc1ccccc1)NC(=O)CNC(=O)[C@H](CCCCN)NC(=O)[C@@H](N)CCCCN)C(=O)N[C@@H](CC(=O)O)C(=O)O [immX3AVD] (H-KKGFYKKKQCRPSKGRKRGFCWAVD-OH),Hyaluronate binding (fluorescence counts),[1],100.0 ± 22.8
same,Heparin binding (fluorescence counts),[2],100.0 ± 4.7
same,"CD44 immunoreactivity, 10 ug/w HMW-HA",recombinant CD44 protein; pH 5.2,105.1 ± 11.4 AU
same,"CD44 immunoreactivity, 10 ug/w LMW-HA",recombinant CD44 protein; pH 5.2,102.6 ± 17.9 AU
same,"CD44 immunoreactivity, 1.5 ug/w HMW-HA",recombinant CD44 protein; pH 5.2,100.0 ± 4.6 AU
same,"CD44 immunoreactivity, CONTROL",recombinant CD44 protein; pH 5.2,13.2 ± 22.0** AU
same,"CD44 immunoreactivity, 10 ug/w HMW-HA",recombinant CD44 protein; pH 7.4,101.1 ± 4.9 AU
same,"CD44 immunoreactivity, 10 ug/w LMW-HA",recombinant CD44 protein; pH 7.4,103.0 ± 19.4 AU
same,"CD44 immunoreactivity, 1.5 ug/w HMW-HA",recombinant CD44 protein; pH 7.4,100.0 ± 15.5 AU
same,"CD44 immunoreactivity, CONTROL",recombinant CD44 protein; pH 7.4,19.6 ± 13.0** AU
same,Creatine Kinase Act.,[3]; helper D-raffinose (1 mM),140.3 ± 8.3** units per milliliter
same,Creatine Kinase Act.,[3]; helper GW 3965 (2 uM),67.4 ± 5.2** units per milliliter
same,Creatine Kinase Act.,[3]; helper GW 501516 (2 uM),174.2 ± 5.0** units per milliliter
same,Creatine Kinase Act.,[3]; helper L-ornithine (1 mM),161.5 ± 6.5** units per milliliter
same,Creatine Kinase Act.,[3]; helper Tf (holotransferrin 2 ug/ml),120.6 ± 2.5** units per milliliter
same,Creatine Kinase Act.,[3]; helper Tf + HMW-HA (2 ug/ml),33.2 ± 3.2 # units per milliliter
same,Creatine Kinase Act.,[3]; helper Tf + LMW-HA (2 ug/ml),136.7 ± 13.3 units per milliliter
same,Creatine Kinase Act.,[3]; helper ciprofibrate (2 uM),109.4 ± 3.2** units per milliliter
same,Creatine Kinase Act.,[3]; helper none,100.0 ± 2.2 units per milliliter
same,CD169+ (AU),[4]; relative to immX3AVD = 100,100 AU
same,Clec12A(AU),[4]; relative to immX3AVD = 100,100 AU
same,CCL22,[4]; culture supernatant,282.4 ± 18.4 pg/mL
same,Alk. Phos. Activity,[5]; compound added: None,100.0 ± 0.5
same,Alk. Phos. Activity,[5]; plus 2 uM Ciprofibrate,127.2 ± 2.7**
same,Alk. Phos. Activity,[5]; plus 2 uM GW 3965,59.1 ± 4.3**
same,Alk. Phos. Activity,[5]; plus 2 uM GW 501516,168.7 ± 3.0**
same,Alk. Phos. Activity,[5]; plus 1 mM D-raffinose,134.6 ± 4.6**
same,Alk. Phos. Activity,[5]; plus 1 mM L-ornithine,159.7 ± 4.4**
